This is an account of results in US20240287047A1, “PESTICIDALLY ACTIVE DIAZINE-AMIDE COMPOUNDS” (SYNGENTA CROP PROTECTION AG, priority 2021, published 2024).

SMILES strings stand for the structures.

The mortality is the percentage killed. Low readings indicate a weak lethal effect, high ones a strong lethal effect.

What all share (type): in vivo
For one assay, the system named is Plutella xylostella. Kind of assay: Example B4: Plutella xylostella (diamond back moth), artificial diet, eggs. The conditions noted are these: Plutella xylostella, 192 h; application rate of 200 ppm; 8 days after infestation; read-out: control in at least one of the two categories (mortality or growth inhibition). As to the method:
24-well microtiter plates with artificial diet were treated with aqueous test solutions prepared from 10′000 ppm DMSO stock solutions by pipetting. After drying, Plutella eggs were pipetted through a plastic stencil onto a gel blotting paper and the plate was closed with it. The samples were assessed for mortality and growth inhibition in comparison to untreated samples 8 days after infestation.

In a further assay the test system is Spodoptera littoralis. Kind of assay: Example B5: Spodoptera littoralis (Egyptian cotton leaf worm), cotton leaf discs, L1 larvae. To be noted: foliar, 72 h, application rate of 200 ppm, 3 days after infestation, read-out: control in at least one of the three categories (mortality, anti-feedant effect, or growth inhibition). As to the method: Cotton leaf discs were placed onto agar in 24-well microtiter plates and sprayed with aqueous test solutions prepared from 10,000 ppm DMSO stock solutions. After drying the leaf discs were infested with five L1 larvae. The samples were assessed for mortality, anti-feeding effect, and growth inhibition in comparison to untreated samples 3 days after infestation. Control of Spodoptera littoralis by a test sample is given when at least one of the categories mortality, anti-feedant effect, and growth inhibition is higher than the untreated sample.

A further assay relates to Chilo suppressalis. In words: Example B1: Chilo suppressalis (striped rice stemborer), artificial diet, L2 larvae. The conditions noted are these: 144 h, application rate of 200 ppm, 6 days after infestation, read-out: control in at least one of the three categories (mortality, anti-feedant effect, or growth inhibition). As to the method: 24-well microtiter plates with artificial diet were treated with aqueous test solutions prepared from 10,000 ppm DMSO stock solutions by pipetting. After drying, the plates were infested with L2 larvae (6-8 per well). The samples were assessed for mortality, anti-feeding effect, and growth inhibition in comparison to untreated samples 6 days after infestation. Control of Chilo suppressalis by a test sample is given when at least one of the categories mortality, anti-feedant effect, and growth inhibition is higher than the untreated sample.

A further assay relates to Diabrotica balteata. In words: Example B2: Diabrotica balteata (corn root worm), maize sprouts, L2 larvae. The conditions noted are these: for percent control (mortality or growth inhibition) at 200 ppm: Diabrotica balteata, 96 h, application rate of 200 ppm, 4 days after infestation, read-out: control in at least one of the two categories (mortality or growth inhibition). As to the method: Maize sprouts placed onto an agar layer in 24-well microtiter plates were treated with aqueous test solutions prepared from 10,000 ppm DMSO stock solutions by spraying. After drying, the plates were infested with L2 larvae (6 to 10 per well). The samples were assessed for mortality and growth inhibition in comparison to untreated samples 4 days after infestation.

The subject of assay [1] is Myzus persicae. In words: Example B3: Myzus persicae (green peach aphid) intrinsic activity. The conditions noted are these: 120 h, test rate of 12 ppm, 5 days after infestation. As to the method: Test compounds prepared from 10′000 ppm DMSO stock solutions were applied by pipette into 24-well microtiter plates and mixed with sucrose solution. The plates were closed with a stretched Parafilm. A plastic stencil with 24 holes was placed onto the plate and infested pea seedlings were placed directly on the Parafilm. The infested plate was closed with a gel blotting paper and another plastic stencil and then turned upside down. The samples were assessed for mortality 5 days after infestation.

Assay [2] concerns Myzus persicae. In words: Example B9: Myzus persicae (green peach aphid) feeding/contact activity, sunflower leaf discs. The conditions noted are these: foliar, 144 h, application rate of 200 ppm, 6 days after infestation. As to the method: Sunflower leaf discs were placed onto agar in a 24-well microtiter plate and sprayed with aqueous test solutions prepared from 10,000 ppm DMSO stock solutions. After drying, the leaf discs were infested with an aphid population of mixed ages. The samples were assessed for mortality 6 days after infestation.

In the case of `C[C@H](NC(=O)c1cc(C(F)(F)F)cc(C(C)(C)C#N)c1)c1nccnc1-c1cnccn1` [Compound E7], the percent control (mortality or growth inhibition) at 200 ppm with Plutella xylostella and in the assay with Diabrotica balteata was no less than 80% in each case. Also, the percent control (mortality, anti-feedant effect or growth inhibition) at 200 ppm in the assay on Spodoptera littoralis and with Chilo suppressalis was no less than 80% in each case. Further, in the assay on Myzus persicae [1], the mortality at 12 ppm was no less than 80%.

For `CC(NC(=O)c1cc(C(F)(F)F)cc(S(C)(=O)=O)c1)c1nccnc1-c1cnccn1` (centres unmarked) [Compound P16, 3-methylsulfonyl-N-[1-(3-pyrazin-2-ylpyrazin-2-yl)ethyl]-5-(trifluoromethyl)benzamide], the percent control (mortality or growth inhibition) at 200 ppm with Plutella xylostella and in the assay on Diabrotica balteata was no less than 80% in each case. In addition, the percent control (mortality, anti-feedant effect or growth inhibition) at 200 ppm in the assay with Spodoptera littoralis and in the assay on Chilo suppressalis was no less than 80% in each case. The same molecule yielded a mortality at 12 ppm in the assay on Myzus persicae [1] of no less than 80%.

As to `C[C@@H](c1nccnc1-c1cnccn1)N(C)C(=O)c1cc(C(F)(F)F)cc(C(C)(C)C#N)c1` [Compound E12, 3-(1-cyano-1-methyl-ethyl)-N-methyl-N-[(1S)-1-(3-pyrazin-2-ylpyrazin-2-yl)ethyl]-5-(trifluoromethyl)benzamide], the percent control (mortality, anti-feedant effect or growth inhibition) at 200 ppm in the assay with Spodoptera littoralis was no less than 80%. The percent control (mortality or growth inhibition) at 200 ppm with Diabrotica balteata was no less than 80%. The molecule also had a mortality at 12 ppm in the assay on Myzus persicae [1] of no less than 80%.

With `CC(NC(=O)c1cc(OC(F)F)cc(OC(F)F)c1)c1nccnc1-c1cnccn1` (centres unmarked) [Compound P2, 3,5-bis(difluoromethoxy)-N-[1-(3-pyrazin-2-ylpyrazin-2-yl)ethyl]benzamide], the percent control (mortality or growth inhibition) at 200 ppm with Plutella xylostella and in the assay with Diabrotica balteata was no less than 80% each time. Also, the percent control (mortality, anti-feedant effect or growth inhibition) at 200 ppm in the assay with Spodoptera littoralis and in the assay on Chilo suppressalis was no less than 80% each time. The mortality at 12 ppm in the assay on Myzus persicae [1] was no less than 80%.

Turning to `CC(NC(=O)c1cc(F)cc(C(F)(F)F)c1)c1nccnc1-c1cnccn1` (centres unmarked) [Compound P25, 3-fluoro-N-[1-(3-pyrazin-2-ylpyrazin-2-yl)ethyl]-5-(trifluoromethyl)benzamide], in the assay with Plutella xylostella, the percent control (mortality or growth inhibition) at 200 ppm is no less than 80%. The same molecule came in with a mortality at 200 ppm in the assay on Myzus persicae [2] of no less than 80%.

As to `CC(NC(=O)c1cc(OC(F)(F)F)cc(C2(C#N)CC2)c1)c1nccnc1-c1cnccn1` (centres unmarked) [Compound P31], the percent control (mortality or growth inhibition) at 200 ppm with Plutella xylostella and in the assay on Diabrotica balteata was no less than 80% in each case. The percent control (mortality, anti-feedant effect or growth inhibition) at 200 ppm with Spodoptera littoralis and in the assay on Chilo suppressalis was no less than 80% throughout. In the assay with Myzus persicae [1], the mortality at 12 ppm was no less than 80%.

For the molecule `CC(NC(=O)c1cc(OC(F)F)cc(C2(C#N)CC2)c1)c1nccnc1-c1cnccn1` (centres unmarked) [Compound P32, 3-(1-cyanocyclopropyl)-5-(difluoromethoxy)-N-[1-(3-pyrazin-2-ylpyrazin-2-yl)ethyl]benzamide], the percent control (mortality, anti-feedant effect or growth inhibition) at 200 ppm in the assay on Spodoptera littoralis and with Chilo suppressalis was no less than 80% throughout. In the assay with Myzus persicae [1], this molecule returned a mortality at 12 ppm of no less than 80%.

Consider `Cc1cc(C(=O)NC(C)c2nccnc2-c2cnccn2)cc(C(F)(F)F)c1` (centres unmarked) [Compound P18, 3-methyl-N-[1-(3-pyrazin-2-ylpyrazin-2-yl)ethyl]-5-(trifluoromethyl)benzamide], for which the percent control (mortality or growth inhibition) at 200 ppm with Plutella xylostella was no less than 80%. In the assay with Chilo suppressalis, the percent control (mortality, anti-feedant effect or growth inhibition) at 200 ppm was no less than 80%. Further, the mortality at 200 ppm in the assay with Myzus persicae [2] was no less than 80%.

Regarding `CC(NC(=O)c1cc(Cl)cc(Br)c1)c1nccnc1-c1cnccn1` (centres unmarked) [Compound P12, 3-bromo-5-chloro-N-[1-(3-pyrazin-2-ylpyrazin-2-yl)ethyl]benzamide], the percent control (mortality or growth inhibition) at 200 ppm in the assay on Plutella xylostella and in the assay on Diabrotica balteata was no less than 80% in each case. Further, in the assay on Spodoptera littoralis, the percent control (mortality, anti-feedant effect or growth inhibition) at 200 ppm is no less than 80%. The mortality at 200 ppm with Myzus persicae [2] is no less than 80%.

Regarding `CC(c1nccnc1-c1cnccn1)N(C)C(=O)c1cc(Cl)nc(C2(C#N)CC2)c1` (centres unmarked) [Compound P29, 2-chloro-6-(1-cyanocyclopropyl)-N-methyl-N-[1-(3-pyrazin-2-ylpyrazin-2-yl)ethyl]pyridine-4-carboxamide], the percent control (mortality or growth inhibition) at 200 ppm with Plutella xylostella and in the assay on Diabrotica balteata was no less than 80% throughout. The percent control (mortality, anti-feedant effect or growth inhibition) at 200 ppm with Spodoptera littoralis and in the assay on Chilo suppressalis was no less than 80% each time.

Take `CC(NC(=O)c1cc(C(F)F)cc(C(F)(F)F)c1)c1nccnc1-c1cnccn1` (centres unmarked) [Compound P10, 3-(difluoromethyl)-N-[1-(3-pyrazin-2-ylpyrazin-2-yl)ethyl]-5-(trifluoromethyl)benzamide]: the percent control (mortality or growth inhibition) at 200 ppm in the assay with Plutella xylostella and with Diabrotica balteata was no less than 80% throughout. Also, the percent control (mortality, anti-feedant effect or growth inhibition) at 200 ppm in the assay on Spodoptera littoralis and with Chilo suppressalis was no less than 80% each time. The mortality at 50 ppm in the assay with Diabrotica balteata (Concentration 50 ppm, Diabrotica balteata (Example B32)) stood at 100%.

Regarding `CC(NC(=O)c1cc(Br)cc(I)c1)c1nccnc1-c1cnccn1` (centres unmarked) [Compound P24, 3-bromo-5-iodo-N-[1-(3-pyrazin-2-ylpyrazin-2-yl)ethyl]benzamide], the percent control (mortality or growth inhibition) at 200 ppm with Plutella xylostella and with Diabrotica balteata was no less than 80% throughout. Besides, the percent control (mortality, anti-feedant effect or growth inhibition) at 200 ppm with Spodoptera littoralis and in the assay with Chilo suppressalis was no less than 80% in each case.

As to `CC(NC(=O)c1cc(Cl)nc(C2(C#N)CC2)c1)c1nccnc1-c1cnccn1` (centres unmarked) [Compound P27, 2-chloro-6-(1-cyanocyclopropyl)-N-[1-(3-pyrazin-2-ylpyrazin-2-yl)ethyl]pyridine-4-carboxamide], the percent control (mortality or growth inhibition) at 200 ppm with Plutella xylostella and with Diabrotica balteata was no less than 80% throughout. Further, the percent control (mortality, anti-feedant effect or growth inhibition) at 200 ppm in the assay on Spodoptera littoralis and with Chilo suppressalis was no less than 80% each time.

As to `CC(NC(=O)c1cc(I)cc(I)c1)c1nccnc1-c1cnccn1` (centres unmarked) [Compound P17, 3,5-diiodo-N-[1-(3-pyrazin-2-ylpyrazin-2-yl)ethyl]benzamide], the percent control (mortality or growth inhibition) at 200 ppm with Plutella xylostella and in the assay on Diabrotica balteata was no less than 80% each time. Besides, the percent control (mortality, anti-feedant effect or growth inhibition) at 200 ppm with Spodoptera littoralis was no less than 80%. Also, the mortality at 200 ppm in the assay on Myzus persicae [2] is no less than 80%.

As for `CC(NC(=O)c1cc(OC(F)F)cc(C(F)(F)F)c1)c1nccnc1-c1cnccn1` (centres unmarked) [Compound P20], the percent control (mortality or growth inhibition) at 200 ppm in the assay with Plutella xylostella and in the assay with Diabrotica balteata was no less than 80% throughout. Besides, the percent control (mortality, anti-feedant effect or growth inhibition) at 200 ppm in the assay on Spodoptera littoralis and with Chilo suppressalis was no less than 80% in each case. This molecule also displayed a mortality at 12 ppm in the assay with Myzus persicae [1] of no less than 80%.

As for `CC(NC(=O)c1cc(C(F)(F)F)nc(C2(C#N)CC2)c1)c1nccnc1-c1cnccn1` (centres unmarked) [Compound P4], the percent control (mortality or growth inhibition) at 200 ppm with Plutella xylostella and in the assay on Diabrotica balteata was no less than 80% each time. Moreover, the percent control (mortality, anti-feedant effect or growth inhibition) at 200 ppm with Spodoptera littoralis and in the assay on Chilo suppressalis was no less than 80% throughout.

Take `CC(NC(=O)c1cc(Cl)cc(S(C)(=O)=O)c1)c1nccnc1-c1cnccn1` (centres unmarked) [Compound P26, 3-chloro-5-methylsulfonyl-N-[1-(3-pyrazin-2-ylpyrazin-2-yl)ethyl]benzamide]: the percent control (mortality or growth inhibition) at 200 ppm with Plutella xylostella and in the assay with Diabrotica balteata was no less than 80% each time. In addition, the percent control (mortality, anti-feedant effect or growth inhibition) at 200 ppm with Spodoptera littoralis and in the assay with Chilo suppressalis was no less than 80% in each case. The molecule further yielded a mortality at 12 ppm with Myzus persicae [1] of no less than 80%.

Take `CC(NC(=O)c1cc(Cl)cc(Cl)c1)c1nccnc1-c1cnccn1` (centres unmarked) [Compound P8, 3,5-dichloro-N-[1-(3-pyrazin-2-ylpyrazin-2-yl)ethyl]benzamide]: the percent control (mortality or growth inhibition) at 200 ppm with Plutella xylostella and with Diabrotica balteata was no less than 80% each time. For the same molecule, the percent control (mortality, anti-feedant effect or growth inhibition) at 200 ppm with Spodoptera littoralis and with Chilo suppressalis was no less than 80% throughout.
